In patent publication US20220306695A1, “COMPSTATIN ANALOGUES AND THEIR MEDICAL USES” (priority 2019, published 2022):
Read-outs that look alike come from different tables or passages of the source. Starred links: 1 amine or outer side, 2 acyl side, 3 side chain; linkers in the order of their positions; H or OH if unused. Positions of bridges follow the written chain, without caps; N, C: chain ends. Non-standard residues stand in square brackets, D forms with d. Residues, ends and D or L forms follow the SMILES beside them. Groups on a side chain read outwards from the residue. *: point of attachment. Trp(1-Me) = Cn1cc(C[C@H](N)C(=O)O)c2ccccc21; Abu(4-yl) = O=C([C@H](CC[*:3])N[*:1])[*:2]; C18 diacid = O=C(O)CCCCCCCCCCCCCCCCC(=O)*; C16 diacid = O=C(O)CCCCCCCCCCCCCCC(=O)*; γGlu = O=C(O)[C@H](CCC(=O)[*:2])N[*:1]; AEEA = NCCOCCOCC(=O)O; Sar = CNCC(=O)O

B1: Compound 100 (peptide)
peptide: Ac-K([AEEA-AEEA-γGlu-C16 diacid])GSAICIWQDWGEHRCTEGE-NH2
modifications: disulfide 6-16
SMILES: CC[C@H](C)[C@H](NC(=O)[C@H](C)NC(=O)[C@H](CO)NC(=O)CNC(=O)[C@H](CCCCNC(=O)COCCOCCNC(=O)COCCOCCNC(=O)CC[C@H](NC(=O)CCCCCCCCCCCCCCC(=O)O)C(=O)O)NC(C)=O)C(=O)N[C@H]1CSSC[C@@H](C(=O)N[C@H](C(=O)N[C@@H](CCC(=O)O)C(=O)NCC(=O)N[C@@H](CCC(=O)O)C(N)=O)[C@@H](C)O)NC(=O)[C@H](CCCNC(=N)N)NC(=O)[C@H](Cc2c[nH]cn2)NC(=O)[C@H](CCC(=O)O)NC(=O)CNC(=O)[C@H](Cc2c[nH]c3ccccc23)NC(=O)[C@H](CC(=O)O)NC(=O)[C@H](CCC(N)=O)NC(=O)[C@H](Cc2c[nH]c3ccccc23)NC(=O)[C@H]([C@@H](C)CC)NC1=O
B2: Compound 103 (peptide)
peptide: Ac-EGSAYCI[Trp(1-Me)]QDWGEHK([AEEA-AEEA-γGlu-C16 diacid])C[Sar]E-NH2
modifications: disulfide 6-16
SMILES: CC[C@H](C)[C@@H]1NC(=O)[C@@H](NC(=O)[C@H](Cc2ccc(O)cc2)NC(=O)[C@H](C)NC(=O)[C@H](CO)NC(=O)CNC(=O)[C@H](CCC(=O)O)NC(C)=O)CSSC[C@@H](C(=O)N(C)CC(=O)N[C@@H](CCC(=O)O)C(N)=O)NC(=O)[C@H](CCCCNC(=O)COCCOCCNC(=O)COCCOCCNC(=O)CC[C@H](NC(=O)CCCCCCCCCCCCCCC(=O)O)C(=O)O)NC(=O)[C@H](Cc2c[nH]cn2)NC(=O)[C@H](CCC(=O)O)NC(=O)CNC(=O)[C@H](Cc2c[nH]c3ccccc23)NC(=O)[C@H](CC(=O)O)NC(=O)[C@H](CCC(N)=O)NC(=O)[C@H](Cc2cn(C)c3ccccc23)NC1=O
B3: Compound 108 (peptide)
peptide: {C18 diacid}-EGSEYCI[Trp(1-Me)]QDWGEHRC[Sar]E-NH2
modifications: disulfide 6-16
SMILES: CC[C@H](C)[C@@H]1NC(=O)[C@@H](NC(=O)[C@H](Cc2ccc(O)cc2)NC(=O)[C@H](CCC(=O)O)NC(=O)[C@H](CO)NC(=O)CNC(=O)[C@H](CCC(=O)O)NC(=O)CCCCCCCCCCCCCCCCC(=O)O)CSSC[C@@H](C(=O)N(C)CC(=O)N[C@@H](CCC(=O)O)C(N)=O)NC(=O)[C@H](CCCNC(=N)N)NC(=O)[C@H](Cc2c[nH]cn2)NC(=O)[C@H](CCC(=O)O)NC(=O)CNC(=O)[C@H](Cc2c[nH]c3ccccc23)NC(=O)[C@H](CC(=O)O)NC(=O)[C@H](CCC(N)=O)NC(=O)[C@H](Cc2cn(C)c3ccccc23)NC1=O
B4: Compound 109 (peptide)
peptide: Ac-EGSAYCI[Trp(1-Me)]QDWGEHRC[Sar]EGEK([γGlu-Gly-γGlu-C18 diacid])-NH2
modifications: disulfide 6-16
SMILES: CC[C@H](C)[C@@H]1NC(=O)[C@@H](NC(=O)[C@H](Cc2ccc(O)cc2)NC(=O)[C@H](C)NC(=O)[C@H](CO)NC(=O)CNC(=O)[C@H](CCC(=O)O)NC(C)=O)CSSC[C@@H](C(=O)N(C)CC(=O)N[C@@H](CCC(=O)O)C(=O)NCC(=O)N[C@@H](CCC(=O)O)C(=O)N[C@@H](CCCCNC(=O)CC[C@H](NC(=O)CNC(=O)CC[C@H](NC(=O)CCCCCCCCCCCCCCCCC(=O)O)C(=O)O)C(=O)O)C(N)=O)NC(=O)[C@H](CCCNC(=N)N)NC(=O)[C@H](Cc2c[nH]cn2)NC(=O)[C@H](CCC(=O)O)NC(=O)CNC(=O)[C@H](Cc2c[nH]c3ccccc23)NC(=O)[C@H](CC(=O)O)NC(=O)[C@H](CCC(N)=O)NC(=O)[C@H](Cc2cn(C)c3ccccc23)NC1=O

How the values were obtained:
[1] = assay type: physicochemical; settings: 50 mg/mL peptide; for Covalent oligomer content after 14 days 40° C. (%), F1 / Purity after 14 days 40° C. (%), F1: F1: 20 mM phosphate pH 5.5; for Covalent oligomer content after 14 days 40° C. (%), F1 / Covalent oligomer content after 14 days 40° C. (%), F2: denaturing SEC; for Purity after 14 days 40° C. (%), F1 / Purity after 14 days 40° C. (%), F2 / Purity after 14 days 40° C. (%), F3: normalized purity (HPLC)
Method: Chemical stability of compstatin analogues with cystathionine or disulfide bridge. Stability was assessed in three formulations at 50 mg/mL peptide, F1:20 mM phosphate pH 5.5, F2:20 mM phosphate pH 6.5 and F3:20 mM phosphate pH 7.5. The formulations were prepared by direct dissolution of peptide from lyophilized portions in the respective formulations. pH was adjusted to target with 1 M NaOH and 1 M HCl. Chemical stability was assessed under accelerated conditions (14 days, 40° C.) and evaluated as change in purity by reverse phase HPLC, and change in covalent oligomer content by denaturing SEC. The formulations were placed at 40° C. with analysis points at T=0, 7 and 14 days. On each time point a small volume was extracted and diluted to 2 mg/mL and tested by reverse phase HPLC and denaturing SEC. Purity was assessed by reverse phase HPLC using an Ultimate 3000 system for binary gradient application equipped with a Kinetix C18 column (cat. no. 00F-4462-Y0, 150 mm×3 mm, 2.6 μm) run at 0.5 ml/min with a gradient of buffer A (0.3% TFA, aq.) and buffer B (0.3% TFA, 90% MeCN, aq.) gradient from 40% B to 70% B over 20 min. Detection was done using a diode array detector set to 220 nm. Covalent oligomer formation was assessed by denaturing SEC (size exclusion chromatography) using an Ultimate 3000 system equipped with a TSKgel SuperSW 2000 column (cat. no. 818674, 300 mm×3 mm, 4 μm) run at 0.5 ml/min with isocratic flow of buffer A (0.1% TFA, 45% MeCN, aq.), 10 min. Detection was done using a diode array detector set to 215 nm. Compounds 126 and 156 were carefully weighed out and dissolved in formulations F1, F2 and F3 to a target concentration of 50 mg/mL. Once visually dissolved, concentration was confirmed by absorbance at 280 nm, and samples were placed in stability at 40° C. Samples for analysis were extracted on T=0, 7 and 14 days from a 40° C. climate chamber. The extracted volume was dissolved 1:25 (final concentration: 2 mg/mL) in 20 mM phosphate pH 5.5, 6.5 or 7.5 and measured by reverse phase HPLC and denaturing SEC by injection of 0.4 μL (column load […]). The resulting chromatograms were integrated to determine chemical purity by reverse phase HPLC and covalent oligomer content by denaturing SEC.

[2] = test system: classical complement pathway; test: In vitro haemolysis assay (inhibition of classical complement pathway); assay type: cell-based, human; settings: Table 3; human serum, sensitized sheep red blood cells; read-out: IC50[nM], in vitro analysis of inhibition of hemolysis
Method in brief: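 Serially diluted compound (9 points) was preincubated 15 min at room temperature with diluted human serum, titrated per batch to give 70-90% maximal haemolysis, in Tris/casein buffer pH 7.4 with Mg2+/Ca2+. Antibody-sensitized sheep erythrocytes were then added for 30 min at 37° C, and the reaction was stopped with EDTA. Haemolysis was read at A405, with IC50 from 4PL fit.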

[3] = target: Human C3 (human, UniProt P01024 23-1663); test: cell-based or functional assay
Human C3, sequence (P01024 23-1663 limits assumed): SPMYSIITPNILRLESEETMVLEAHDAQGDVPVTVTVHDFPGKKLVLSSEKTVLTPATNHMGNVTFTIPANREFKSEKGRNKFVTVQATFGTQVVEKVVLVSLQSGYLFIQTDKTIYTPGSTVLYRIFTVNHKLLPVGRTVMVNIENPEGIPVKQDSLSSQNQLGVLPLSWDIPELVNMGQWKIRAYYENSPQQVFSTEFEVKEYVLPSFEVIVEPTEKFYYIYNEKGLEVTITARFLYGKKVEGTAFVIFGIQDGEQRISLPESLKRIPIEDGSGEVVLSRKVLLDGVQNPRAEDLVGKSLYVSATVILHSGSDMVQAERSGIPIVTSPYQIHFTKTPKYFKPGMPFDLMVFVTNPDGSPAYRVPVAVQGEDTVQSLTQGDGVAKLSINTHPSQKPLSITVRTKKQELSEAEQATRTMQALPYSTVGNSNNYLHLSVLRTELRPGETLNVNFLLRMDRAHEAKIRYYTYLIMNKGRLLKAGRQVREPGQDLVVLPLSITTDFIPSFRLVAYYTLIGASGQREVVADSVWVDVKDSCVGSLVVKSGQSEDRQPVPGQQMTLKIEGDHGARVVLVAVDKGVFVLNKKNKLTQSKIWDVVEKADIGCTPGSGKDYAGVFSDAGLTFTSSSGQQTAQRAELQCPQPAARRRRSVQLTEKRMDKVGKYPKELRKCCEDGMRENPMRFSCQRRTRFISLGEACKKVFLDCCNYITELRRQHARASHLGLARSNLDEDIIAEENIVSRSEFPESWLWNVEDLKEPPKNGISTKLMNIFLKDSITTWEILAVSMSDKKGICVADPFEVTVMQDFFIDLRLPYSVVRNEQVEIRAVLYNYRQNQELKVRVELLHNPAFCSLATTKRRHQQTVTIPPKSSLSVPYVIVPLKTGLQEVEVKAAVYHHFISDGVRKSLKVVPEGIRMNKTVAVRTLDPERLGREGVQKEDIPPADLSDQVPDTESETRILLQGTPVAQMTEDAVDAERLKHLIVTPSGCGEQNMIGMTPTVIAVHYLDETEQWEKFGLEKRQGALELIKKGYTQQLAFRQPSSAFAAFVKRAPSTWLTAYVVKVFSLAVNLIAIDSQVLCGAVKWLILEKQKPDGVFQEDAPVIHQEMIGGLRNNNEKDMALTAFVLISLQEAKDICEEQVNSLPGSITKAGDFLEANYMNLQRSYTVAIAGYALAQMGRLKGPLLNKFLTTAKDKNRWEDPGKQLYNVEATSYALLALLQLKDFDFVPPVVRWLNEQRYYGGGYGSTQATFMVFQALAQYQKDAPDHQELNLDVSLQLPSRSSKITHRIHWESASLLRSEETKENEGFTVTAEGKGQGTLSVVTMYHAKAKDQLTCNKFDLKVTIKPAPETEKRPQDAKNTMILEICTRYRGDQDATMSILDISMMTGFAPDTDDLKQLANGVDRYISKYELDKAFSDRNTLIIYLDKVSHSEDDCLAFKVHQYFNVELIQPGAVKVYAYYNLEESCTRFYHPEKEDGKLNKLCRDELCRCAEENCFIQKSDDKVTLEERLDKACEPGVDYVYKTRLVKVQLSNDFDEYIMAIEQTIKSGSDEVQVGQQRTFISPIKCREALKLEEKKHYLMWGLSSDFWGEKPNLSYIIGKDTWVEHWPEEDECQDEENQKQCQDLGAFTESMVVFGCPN

Molecule	Covalent oligomer content after 14 days 40° C. (%), F1 [1] [%]	Purity after 14 days 40° C. (%), F1 [1] [%]	Covalent oligomer content after 14 days 40° C. (%), F2 ([1]; F2: 20 mM phosphate pH 6.5) [%]	Purity after 14 days 40° C. (%), F2 ([1]; F2: 20 mM phosphate pH 6.5) [%]	Covalent oligomer content after 14 days 40° C. (%), F2 ([1]; F3: 20 mM phosphate pH 7.5) [%]	Purity after 14 days 40° C. (%), F3 ([1]; F3: 20 mM phosphate pH 7.5) [%]	IC50 [2] [nM]	IC50[nM], inhibition of hemolysis [3] [nM]
CC[C@H](C)[C@@H]1NC(=O)[C@@H](NC(=O)[C@H](Cc2ccccc2)NC(=O)[C@H](CCC(=O)O)NC(=O)[C@H](CO)NC(C)=O)CSSC[C@@H](C(=O)N[C@H](C(=O)N[C@@H](CCC(=O)O)C(=O)NCC(=O)N[C@@H](CCC(=O)O)C(=O)NCCOCCOCC(=O)NCCOCCOCC(=O)N[C@@H](CCCCNC(=O)CC[C@H](NC(=O)CNC(=O)CC[C@H](NC(=O)CCCCCCCCCCCCCCCCC(=O)O)C(=O)O)C(=O)O)C(N)=O)[C@@H](C)O)NC(=O)[C@H](CCCNC(=N)N)NC(=O)[C@H](Cc2c[nH]cn2)NC(=O)[C@H](CCC(=O)O)NC(=O)CNC(=O)[C@H](Cc2c[nH]c3ccccc23)NC(=O)[C@H](CC(=O)O)NC(=O)[C@H](CCC(N)=O)NC(=O)[C@H](Cc2cn(C)c3ccccc23)NC1=O [Compound 126] (Ac-SEFCI[Trp(1-Me)]QDWGEHRCTEGE[AEEA][AEEA]K([γGlu-Gly-γGlu-C18 diacid])-NH2; disulfide 4-14)	66	45	54	47	41	57	< 100	
CC[C@H](C)[C@@H]1NC(=O)[C@@H](NC(=O)[C@H](Cc2ccccc2)NC(=O)[C@H](CCC(=O)O)NC(=O)[C@H](CO)NC(C)=O)CSCC[C@@H](C(=O)N(C)CC(=O)N[C@@H](CCC(=O)O)C(=O)NCC(=O)N[C@@H](CCC(=O)O)C(=O)NCCOCCOCC(=O)NCCOCCOCC(=O)N[C@@H](CCCCNC(=O)CC[C@H](NC(=O)CNC(=O)CC[C@H](NC(=O)CCCCCCCCCCCCCCCCC(=O)O)C(=O)O)C(=O)O)C(N)=O)NC(=O)[C@H](CCCNC(=N)N)NC(=O)[C@H](Cc2c[nH]cn2)NC(=O)[C@H](CCC(=O)O)NC(=O)CNC(=O)[C@H](Cc2c[nH]c3ccccc23)NC(=O)[C@H](CCC(=O)O)NC(=O)[C@H](CCC(N)=O)NC(=O)[C@H](Cc2cn(C)c3ccccc23)NC1=O [Compound 153] (Ac-SEFCI[Trp(1-Me)]QEWGEHR[Abu(4-yl)][Sar]EGE[AEEA][AEEA]K([γGlu-Gly-γGlu-C18 diacid])-NH2; thioether 4-14)	0.7	97	0.5	99	0.3	99	< 100	
CC[C@H](C)[C@@H]1NC(=O)[C@@H](NC(=O)[C@H](Cc2ccccc2)NC(=O)[C@H](CCC(=O)O)NC(=O)[C@H](CO)NC(C)=O)CSCC[C@@H](C(=O)N[C@H](C(=O)N[C@@H](CCC(=O)O)C(=O)NCC(=O)N[C@@H](CCC(=O)O)C(=O)NCCOCCOCC(=O)NCCOCCOCC(=O)N[C@@H](CCCCNC(=O)CC[C@H](NC(=O)CNC(=O)CC[C@H](NC(=O)CCCCCCCCCCCCCCCCC(=O)O)C(=O)O)C(=O)O)C(N)=O)[C@@H](C)O)NC(=O)[C@H](CCCNC(=N)N)NC(=O)[C@H](Cc2c[nH]cn2)NC(=O)[C@H](CCC(=O)O)NC(=O)CNC(=O)[C@H](Cc2c[nH]c3ccccc23)NC(=O)[C@H](CC(=O)O)NC(=O)[C@H](CCC(N)=O)NC(=O)[C@H](Cc2cn(C)c3ccccc23)NC1=O [Compound 156, Ac-SEFA(1)I[1-Me-Trp]QDWGEHRhC(1)TEGE[Peg3][Peg3]-K([17-carboxy-heptadecanoyl][γGlu]G[γGlu])-NH2] (Ac-SEFCI[Trp(1-Me)]QDWGEHR[Abu(4-yl)]TEGE[AEEA][AEEA]K([γGlu-Gly-γGlu-C18 diacid])-NH2; thioether 4-14)	1.1	92	0.5	96	1.1	95	< 100	
B1								< 500
B2								< 100
Ac-SAYCI[Trp(1-Me)]QDWGEHRC[Sar]EK([γGlu-Gly-Lys-γGlu-C18 diacid])-NH2 (disulfide 4-14) [Compound 105]								< 100
B3								< 500
B4								< 250
